This is an account of results in patent US10293004B2, “Butyrate-producing bacterium and use thereof” (KABUSHIKI KAISHA YAKULT HONSHA, priority 2014, dated 2019).

In assay [1] the test system is mouse C57BL/6J. Briefly: Multiple oral dose test of YIT 12355 to mouse given indigestible saccharide. Type of assay: in vivo. As to conditions: for Total cell count: DAPI counting method; for Cell count, A. hadrus: quantitative PCR; for Occupancy: cell count of YIT 12355/total cell count ×100; for Detected count: mice with A. hadrus detected / mice in group. How it is done: Mice were acclimatized and raised with F2 feed (manufactured by Funabashi Farm Co., Ltd.) for 1 week and then divided into 6 groups such that the average body weight was almost equal among these groups. Then, a control diet (Table 7) was administered thereto for 1 week and replaced with purified feed containing an indigestible material, which was then administered thereto for 2 weeks. A live cell suspension of YIT 12355 was orally administered twice a week a total of 4 times using a probe. At the final day of the test, each mouse was dissected, and the cecal and colonic contents were recovered and examined for an organic acid concentration. Also, the cell count of YIT 12355 in the intestinal tract contents was measured by quantitative PCR, while change in the whole intestinal flora was examined by use of PCR-DGGE (denaturing gradient gel electrophoresis). • Animal used: mouse C57BL/6J (4 weeks old; CLEA Japan, Inc.) • Test period: 3 weeks • Indigestible saccharide used: lactitol and maltitol • Dose of indigestible saccharide: 5% (w/w) • Administered bacterial strain: YIT 12355 • Dose of bacterium: live cell dose: 3.9 to 6.9×10^8 cfu/mouse (administration of a suspension in physiological saline using a probe). Total cell count including dead cells: […] cfu/mouse • Group configuration: 6 groups (5 mice/group) At the 2nd week of administration of the test feed, each mouse was anesthetized with diethyl ether and euthanized by cervical dislocation. After abdominal section, cecal tissues and colonic tissues were excised to recover their contents. The cecal and colonic contents were diluted 10-fold with PBS and subjected to DNA extraction. DNA was extracted by the bead-phenol method from the 10-fold diluted solution of the intestinal tract contents. Specifically, 0.3 g of glass beads (diameter: 0.1 mm), 300 μL of a Tris-SDS solution (a mixed solution of 250 mL of 200 mM Tris-HCl, 80 mM EDTA, pH 9.0, and 50 mL of 10% SDS) and 500 μL of TE saturated phenol were added to 200 μL of the diluted solution of the intestinal tract contents, and the mixture was vigorously shaken for 30 seconds using FASTPREP FP120 cell disruptive equipment (power level: 5.0). After centrifugation at 15,000 rpm for 5 minutes, 400 μL of a phenol/chloroform/isoamyl alcohol (25:24:1) solution was added to 400 μL of the supernatant, and the mixture was shaken for 45 seconds using FASTPREP FP120 cell disruptive equipment (power level: 4.0). After centrifugation at 15,000 rpm for 5 minutes, 25 μL of 3 M sodium acetate (pH 5.4) and 250 μL of isopropanol were added to 250 μL of the supernatant and mixed therewith. After centrifugation at 15,000 rpm for 5 minutes, the supernatant was removed, and 500 μL of 70% ethanol was added thereto, followed by centrifugation again at 15,000 rpm for 5 minutes. The supernatant was removed, and the pellets were dried and dissolved in 1.0 mL of a TE buffer. The obtained DNA solution was diluted 10-fold with purified water to prepare a template DNA solution. For quantitative PCR, 7500 Real-Time PCR System (manufactured by Life Technologies Corp.) was used. The total volume of the reaction solution was set to 20 μL, and SYBR Premix Ex Taq II (Takara Bio Inc.) containing 1.0 μM each of primers, and the template DNA solution were mixed and then subjected to quantitative PCR. The reaction conditions involved heating at 95° C. for 2 minutes, followed by 40 repetitive cycles each involving reactions at 95° C. for 20 seconds, 55° C. for 20 seconds and 72° C. for 50 seconds, and subsequent reaction at 72° C. for 3 minutes. For subsequent Tm value analysis, after reaction at 60° C. for 1 minute, the temperature was elevated at a temperature gradient of 0.2° C./sec to 95° C. during which the fluorescence of SYBR Green I was measured to measure the dissociation temperature (Tm) of the double strand of the amplification product. […]

Assay [2] deals with mouse C57BL/6J. Briefly: Single oral dose test of YIT 12355 to mouse given indigestible saccharide. Type of assay: in vivo. Here is the method: Mice were acclimatized and raised with F2 feed for 1 week and then divided into 4 groups such that the average body weight was almost equal among these groups. A control diet (Table 12) was administered thereto for 1 week. Then, the control diet was administered to the control group (−/− group) and the AH/− group for 2 weeks while purified feed containing maltitol (MAL-containing diet) was administered to the −/MAL group and the AH/MAL group for 2 weeks. A live cell suspension of YIT 12355 was administered at a single dose using a probe after the administration of the control diet for 1 week. At the final day of the test, each mouse was dissected, and the cecal contents were recovered. The cecal contents were subjected to the cell count measurement of YIT 12355. • Test material: Maltitol (5% mixed feed administration) • Administered bacterial strain: YIT 12355 • Animal species: Mouse C57BL/6J (4 weeks old; CLEA Japan, Inc.) • Group configuration: 7 mice×4 groups The bacterial solution (viable count: 3.1×10^9 cfu/mL, total cell count: 1.9×10^10 cells/mL) prepared in the preceding paragraph 2) was orally administered at a single dose of 0.2 mL (viable count: 6.2×10^8 cfu/mouse, total cell count: 3.8×10^9 cells/mouse) to each mouse using a probe. To the control group and the −/MAL group, 0.2 mL of physiological saline was administered instead of the bacterial solution. […] Then, the cecal contents were recovered. The cecal contents were diluted 10-fold with PBS and subjected to DNA extraction. DNA was extracted by the bead-phenol method described in the paragraph 4)a) of Example 5 from the 10-fold diluted solution of the intestinal tract contents. The cell count of YIT 12355 was measured by quantitative PCR using the obtained DNA as a template and the bacterial species-specific primers described in the paragraph 4)a) of Example 5. After fixation of a portion of the 10-fold diluted solution of the intestinal tract contents in a 4% solution of paraformaldehyde in PBS, the total cell count was measured by the DAPI counting method. The cell count of YIT 12355 was divided by the total cell count to calculate an occupancy (%). (Occupancy of YIT 12355) (%)=(Cell count of YIT 12355/Total cell count)×100 (Expression 5)

Where [3] appears, read: summary in words of Table 13, single dose.

With “A. hadrus (Eubacterium hadrum) YIT 12355 (NITE BP-01832)”, in assay [1] (Cecal contents), the Total cell count was determined as 10.9 ± 0.1 log10 cells/g contents, the Occupancy was 0.1 ± 0.1% and the Detected count entry is “(4/5)”. Further, the “Cell count, A. hadrus” value in assay [1] (Cecal contents, multiple oral dose) is given as 7.0 ± 1.1 log10 cells/g contents. In assay [1] (Colonic contents), the Total cell count came out at 11.0 ± 0.0 log10 cells/g contents, the Occupancy came out at 0.1 ± 0.1% and the Detected count result is given as “(4/5)”. In assay [1] (Colonic contents, ND: <lower quantification limit 6.0 log10 (cells/g contents)), the “Cell count, A. hadrus” value is 7.2 ± 1.1 log10 cells/g contents. Further, in assay [1] (summary in words of Table 10), the “cell count of A. hadrus in the intestine” value is reported as “largely changes neither” and the “occupancy of A. hadrus in the intestine” value is listed as “largely changes neither”. Further, in assay [2] (cecum, DAPI counting method, single oral dose), the Total cell count was 10.9 ± 0.4 log10 (cells/g contents). Besides, the “Cell count, A. hadrus YIT 12355” value in assay [2] (cecum, quantitative PCR, single oral dose) was 8.0 ± 0.3 log10 (cells/g contents). In addition, the Occupancy in assay [2] (cecum, ratio to total cell count, single oral dose) is on record as 0.3%. In addition, in assay [2] (setting [3]), the “cell count of YIT 12355” value is recorded as “largely changes neither” and the “occupancy of YIT 12355” value is given as “largely changes neither”.
